Assay results published in publication PMC7532004, “Site-specific effects of neurosteroids on GABAA receptor activation and desensitization” (eLife, 2020).

Target: T1, α1β3 GABAAR WT (Homo sapiens, UniProt P14867+P28472)
T1 construct: inserted between the fourth and fifth residues of the mature peptide; photolabeling full-length heteropentameric GABAARs in native membranes; expressed in transfected cells
T1 sequence (P14867 28-456): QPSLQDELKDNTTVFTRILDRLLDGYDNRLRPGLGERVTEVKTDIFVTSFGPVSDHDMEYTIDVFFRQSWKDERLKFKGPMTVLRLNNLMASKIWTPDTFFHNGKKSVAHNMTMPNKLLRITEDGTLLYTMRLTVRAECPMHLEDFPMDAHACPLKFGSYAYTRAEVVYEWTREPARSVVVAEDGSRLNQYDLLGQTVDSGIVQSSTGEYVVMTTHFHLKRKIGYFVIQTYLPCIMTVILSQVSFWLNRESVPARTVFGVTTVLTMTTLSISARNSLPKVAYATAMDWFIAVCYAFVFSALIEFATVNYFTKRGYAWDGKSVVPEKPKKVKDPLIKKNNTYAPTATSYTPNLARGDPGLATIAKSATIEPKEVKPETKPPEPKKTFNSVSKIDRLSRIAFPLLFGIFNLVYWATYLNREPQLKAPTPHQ
T1 sequence (P28472 26-473): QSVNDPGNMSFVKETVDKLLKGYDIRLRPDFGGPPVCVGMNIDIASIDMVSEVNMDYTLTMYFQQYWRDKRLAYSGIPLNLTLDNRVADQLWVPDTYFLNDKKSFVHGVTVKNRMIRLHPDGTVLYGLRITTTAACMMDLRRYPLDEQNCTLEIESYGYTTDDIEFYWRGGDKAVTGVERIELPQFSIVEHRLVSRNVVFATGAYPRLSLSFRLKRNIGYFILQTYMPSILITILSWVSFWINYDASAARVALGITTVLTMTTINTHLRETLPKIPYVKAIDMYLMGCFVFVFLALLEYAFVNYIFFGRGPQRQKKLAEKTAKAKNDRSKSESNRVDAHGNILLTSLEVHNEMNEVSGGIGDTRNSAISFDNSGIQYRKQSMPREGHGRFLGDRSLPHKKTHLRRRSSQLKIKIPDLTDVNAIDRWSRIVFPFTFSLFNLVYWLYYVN
Experiment: [3H]muscimol binding to HEK cell membranes (neurosteroid modulation and isotherms), WT receptor
Settings: WT α1β3
Protocol: Stably transfected cells were plated into dishes. After reaching 50% confluence, GABAA receptors were expressed by inducing cells with 1 μg/ml of doxycycline with the addition of 5 mM sodium butyrate. Cells were harvested 48 to 72 hr after induction. HEK cells, after induction, were grown to 100% confluence, harvested and washed with 10 mM potassium phosphate, 100 mM potassium chloride (pH 7.5) plus protease inhibitors (Sigma-Aldrich, St. Louis, MO) two times. The cells were collected by centrifugation at 1,000 g at 4°C for 5 min. The cells were homogenized with a glass mortar and a Teflon pestle for ten strokes on ice. The pellet containing the membrane proteins was collected after centrifugation at 20,000 g at 4°C for 45 min and resuspended in a buffer containing 10 mM potassium phosphate, 100 mM potassium chloride (pH 7.5). The protein concentration was determined with micro-BCA protein assay and membranes were stored at −80°C.
[^3H]muscimol-binding assays were performed using a previously described method ([Chen et al., 2019]). […] Assay tubes were incubated for 1 hr on ice in the dark. […] Membranes were collected on Whatman/GF-C glass filter papers using a Brandel cell harvester (Gaithersburg, MD). To perform [^3H]muscimol binding isotherms, 100 μg/ml aliquots of membrane protein were incubated with 0.3 nM–1 μM [^3H]muscimol for 1 hr on ice in the dark. The specific activity for [^3H]muscimol concentrations from 30 nM to 1 μM was reduced to 2 Ci/mmol by dilution with nonradioactive muscimol. The membranes were collected on Whatman/GF-B glass filter papers using a vacuum manifold. […] For [^3H]muscimol-binding experiments examining competitive interactions between neurosteroids, the combined neurosteroids (0.3 μM 3α5αP or 3 μM KK148 ±30 μM KK150) or the same volume of dimethyl sulfoxide (DMSO) were added to the membranes which were then incubated with 3 nM [^3H]muscimol on ice for 1 hr. Time courses of neurosteroid [^3H]muscimol binding enhancement were examined by adding 10 µM of neurosteroids (3α5αP, 3β5αP) to membranes that had been fully equilibrated with 3 nM [^3H]muscimol for 1 hr on ice; binding was then measured as a function of time at 1, 3, 10, 30, 60 min. The membranes were collected on Whatman/GF-B glass filter papers using a vacuum manifold. Radioactivity bound to the filters was measured by liquid scintillation spectrometry using Bio-Safe II (Research Products International, Mount Prospect, IL).

CCOC(=O)c1cncn1[C@H](C)c1ccccc1 [Etomidate, etomidate]
Emax (% of control) of [3H]muscimol binding (3 nM [3H]muscimol, 100% means no effect): 331.1 ± 9.9 % of control | Bmax of [3H]muscimol binding isotherm in the presence of the modulator (etomidate 100 μM, 3α5αP 30 μM, KK148 30 μM, control 9.8 ± 0.8): 10.1 ± 0.5 pmol/mg
